Bounds are passed on as bounds.

Among the data in US20240368092A1, “2,4-Dihydro-3H-1,2,4-Triazol-3-One P2X7 Antagonists” (Breye Therapeutics ApS, priority 2021, published 2024) are IC50 values, retold here.

Assay type in all cases: cell-based
Experiment [1] addresses T1, humanP2X7 (Homo sapiens, UniProt Q99572).
T1 construct: expressed in transfected cells; host or cells: HEK-293
T1 sequence (Q99572 1-595): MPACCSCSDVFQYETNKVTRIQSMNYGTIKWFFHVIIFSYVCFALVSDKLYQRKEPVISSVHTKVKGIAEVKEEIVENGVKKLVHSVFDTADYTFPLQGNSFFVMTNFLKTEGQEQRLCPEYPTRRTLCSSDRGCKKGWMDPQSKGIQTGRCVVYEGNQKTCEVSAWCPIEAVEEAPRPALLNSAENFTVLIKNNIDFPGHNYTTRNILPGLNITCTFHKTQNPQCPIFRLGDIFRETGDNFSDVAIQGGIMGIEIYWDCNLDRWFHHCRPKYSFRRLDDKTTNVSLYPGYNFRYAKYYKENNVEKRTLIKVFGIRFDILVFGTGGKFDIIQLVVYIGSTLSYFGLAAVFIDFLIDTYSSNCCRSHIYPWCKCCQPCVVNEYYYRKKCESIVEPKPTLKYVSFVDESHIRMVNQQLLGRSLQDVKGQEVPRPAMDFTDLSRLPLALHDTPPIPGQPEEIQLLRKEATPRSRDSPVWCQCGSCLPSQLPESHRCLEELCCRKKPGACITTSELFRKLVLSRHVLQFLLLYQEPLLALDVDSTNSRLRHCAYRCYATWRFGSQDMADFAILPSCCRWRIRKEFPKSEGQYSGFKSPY
The experiment is described as follows: P2X7 channel calcium-influx assay (Fluo-8, FLIPR TETRA), human P2X7. The conditions noted are these: HEK-293 cells stably transfected with P2X7; Bz-ATP at EC80; low divalent cation buffer; read-out: humanP2X7 (activity range). The protocol:
(§1) Extracellular binding of Bz-ATP to P2X7 receptor opens the channel and allows Ca^2+ influx into the cells. This Ca^2+ entry was measured in HEK-293 cells stably transfected with P2X7 receptor using Screen Quest™ Fluo-8 No Wash Calcium Assay Kit (AAt Bioquest®, cat. 36316). Once inside the cell, the lipophilic blocking groups of Fluo-8 are cleaved by non-specific cell esterases, resulting in a negatively-charged fluorescent dye that stays inside cells. Its fluorescence increases upon binding to calcium. When HEK-293/P2X7 cells are stimulated with Bz-ATP, Ca^2+ enters the cells and the fluorescence of Fluo-8 NW increases. The dye has an absorption spectrum compatible with excitation at 488 nm by argon laser sources and its emission wavelength is in the range of 515-575 nm.
(§2) HEK-293 cells stably transfected with P2X7 receptor were seeded overnight in growth medium at 10,000 to 20,000 cells/well in 384-well plate. 24 hours later, the medium was removed, and the cells were pre-loaded at RT for 1 hour with 20 μL/w of Fluo-8 NW. Then 10 μL/w of test compounds and reference antagonist A438079 at 3×-concentration were injected with the FLIPRTETRA and the kinetic response over a period of five minutes was monitored. A second injection of 15 μL/w of 3× reference activator (Bz-ATP at EC80) was performed with the FLIPR TETRA and the signal of the emitted fluorescence was recorded for additional three minutes. All the experiment was carried out in a Low Divalent Cation Assay Buffer (0.3 mM Ca^2+ and 0 mM Mg^2+). The effect of the test compounds was measured as percent inhibition vs the reference antagonist and IC50 values were calculated accordingly. Here are reported the potency ranges as A, B, C and D, where A is <200 nM; B is 200 nM-1 μM, C is 1-10 μM, D is 10-30 μM.

In experiment [2] the target is T2, mouseP2X7 (Mus musculus, UniProt Q9Z1M0).
T2 construct: expressed in transfected cells; host or cells: HEK-293
T2 sequence (Q9Z1M0 1-595): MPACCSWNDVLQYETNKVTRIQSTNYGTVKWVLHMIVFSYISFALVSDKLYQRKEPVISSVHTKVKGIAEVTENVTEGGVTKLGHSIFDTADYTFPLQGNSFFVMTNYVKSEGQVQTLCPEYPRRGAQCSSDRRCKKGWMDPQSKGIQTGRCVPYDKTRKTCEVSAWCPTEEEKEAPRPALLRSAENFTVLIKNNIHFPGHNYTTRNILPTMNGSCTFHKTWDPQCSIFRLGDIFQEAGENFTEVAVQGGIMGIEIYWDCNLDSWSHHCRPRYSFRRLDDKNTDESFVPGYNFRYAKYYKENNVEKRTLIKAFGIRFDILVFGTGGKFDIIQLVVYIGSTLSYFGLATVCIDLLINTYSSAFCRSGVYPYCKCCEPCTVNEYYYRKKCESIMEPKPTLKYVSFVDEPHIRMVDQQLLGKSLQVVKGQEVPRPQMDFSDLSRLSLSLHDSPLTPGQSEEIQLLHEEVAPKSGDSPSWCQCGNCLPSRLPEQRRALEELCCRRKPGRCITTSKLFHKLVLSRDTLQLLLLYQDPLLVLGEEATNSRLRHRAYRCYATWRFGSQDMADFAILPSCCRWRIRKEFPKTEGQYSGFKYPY
Description: P2X7 channel calcium-influx assay (Fluo-8, FLIPR TETRA), mouse P2X7. The conditions noted are these: HEK-293 cells stably transfected with P2X7; Bz-ATP at EC80; low divalent cation buffer; read-out: mouseP2X7 (activity range). The procedure:
as §1, §2

Experiment [3] has as its target T3, ratP2X7 (Rattus norvegicus, UniProt Q64663).
T3 construct: expressed in transfected cells; host or cells: HEK-293
T3 sequence (Q64663 1-595): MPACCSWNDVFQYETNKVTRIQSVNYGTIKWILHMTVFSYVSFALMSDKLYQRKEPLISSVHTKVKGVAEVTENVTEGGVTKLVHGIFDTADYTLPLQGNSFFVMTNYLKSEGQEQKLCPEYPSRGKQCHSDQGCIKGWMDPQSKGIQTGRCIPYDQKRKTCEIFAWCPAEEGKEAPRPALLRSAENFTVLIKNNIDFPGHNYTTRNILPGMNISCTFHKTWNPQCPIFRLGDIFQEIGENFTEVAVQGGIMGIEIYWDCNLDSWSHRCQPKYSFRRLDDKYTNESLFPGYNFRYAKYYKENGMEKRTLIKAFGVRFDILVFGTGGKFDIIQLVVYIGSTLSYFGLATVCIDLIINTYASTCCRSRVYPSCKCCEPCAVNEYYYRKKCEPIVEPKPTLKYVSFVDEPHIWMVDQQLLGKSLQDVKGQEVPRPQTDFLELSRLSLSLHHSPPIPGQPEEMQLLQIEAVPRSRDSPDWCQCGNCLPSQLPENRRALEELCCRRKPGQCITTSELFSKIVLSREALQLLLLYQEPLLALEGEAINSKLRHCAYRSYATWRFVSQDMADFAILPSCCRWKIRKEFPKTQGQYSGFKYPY
Description: P2X7 channel calcium-influx assay (Fluo-8, FLIPR TETRA), rat P2X7. The conditions noted are these: HEK-293 cells stably transfected with P2X7; Bz-ATP at EC80; low divalent cation buffer; read-out: ratP2X7 (activity range). The procedure:
as §1, §2

Experiment [4] has as its target T4, human P2X7 channel (Homo sapiens, UniProt Q99572).
T4 construct: expressed in transfected cells; host or cells: HEK-293
T4 sequence (Q99572 1-595): T1 sequence (Q99572 1-595)
Description: human P2X7 channel assay by automated patch-clamp (QPatch 16X). To be noted: HEK-293 cells expressing P2X7; current evoked by 100 microM BzATP; whole-cell, held at -80 mV; read-out: human Q-Patch (activity range). The procedure: In order to directly monitor the block of P2X7 channel, an electrophysiological assay was developed and implemented on the QPatchl6X automated electrophysiology instrument.
HEK-293 cells expressing the P2X7 channels were cultured in modified EMEM.
72 hours before experiment, 5 million cells were seeded onto T225 flasks. Just before the experiment cells were washed twice, detached from the flask with trypsin-EDTA, re-suspended in the suspension solution and placed on the QPatch 16x.
The compounds (20 mM in a 100% DMSO) stored at −20° C. were prepared the day of the experiment (a first dilution 1:20 in 100% DMSO to prepare a 1 mM stock solution, then a 1 microM solution in external solution+a serial dilution 1:10).
The standard whole-cell voltage clamp experiments were performed at room temperature. From these experiments the multihole technology was used and the data were sampled at 2 KHz.
The intracellular solution contained (mM) 135 CsF, 10 NaCl, 1 EGTA, 10 HEPES, (pH 7.2 with CsOH) whereas the extracellular contained (mM) 145 NaCl, 4 KCl, 0.5 MgCl2, 1 CaCl2, 10 HEPES, 10 Glc (pH 7.4 with NaOH).
After establishment of the seal and the passage in the whole cell configuration, the cells were held at −80 mV. The P2XR7 current was evoked by applying 100 microM of BzATP alone (4 times) and then in the presence increasing concentrations of the compound under investigation (1, 10, 100 and 1000 nM).
The pre-incubation periods 5 to 8 contain increasing concentrations of the compound of interest (1, 10, 100 and 1000 nM), as illustrated in FIGURE (application protocol).
The maximal inward current evoked by BzATP in absence or presence of increasing concentrations of the compounds under investigation was measured and normalized. The potential […] effect was measured as % of control and as IC50 determined fitting the dose-response curves data with the following equation:
Here are reported the potency ranges as A, B, C and D, where A is <10 nM; B is 10 nM-100 nM, C is 0.1-1 μM, D is 1-10 μM.

With `Cn1nc(Cc2c(F)cccc2Cl)n(Cc2ccc(F)cc2)c1=O` [Example 1, 5-(2-chloro-6-fluorobenzyl)-4-(4-fluorobenzyl)-2-methyl-2,4-dihydro-3H-1,2,4-triazol-3-one], the figures for the IC50 in experiment [1], in experiment [2] and in experiment [3] were 1 to 10 µM, 1 to 10 µM and 0.2 to 1 µM, respectively.

As to `Cn1nc(Cc2c(F)cccc2Cl)n(CC2CCCCC2)c1=O` [Example 2, 5-(2-chloro-6-fluorobenzyl)-4-(cyclohexylmethyl)-2-methyl-2,4-dihydro-3H-1,2,4-triazol-3-one], the IC50 in experiment [4] was < 0.01 µM; in experiment [1], 0.2 to 1 µM; in experiment [2], 0.2 to 1 µM; in experiment [3], < 0.2 µM.

`Cn1nc(Cc2c(F)cccc2Cl)n(CC2CCC(F)(F)C2)c1=O` (stereo not shown) [Example 4, 5-(2-chloro-6-fluorobenzyl)-4-((3,3-difluorocyclopentyl)methyl)-2-methyl-2,4-dihydro-3H-1,2,4-triazol-3-one]: the IC50 in experiment [1] lay in the range of 0.2 to 1 µM; in experiment [2], 1 to 10 µM; in experiment [3], 0.2 to 1 µM.

`Cn1nc(Cc2c(F)cccc2Cl)n(CC2CCC(F)CC2)c1=O` (stereo not shown) [Example 6, 5-(2-chloro-6-fluorobenzyl)-4-((4-fluorocyclohexyl)methyl)-2-methyl-2,4-dihydro-3H-1,2,4-triazol-3-one]: the IC50 was 0.2 to 1 µM in experiment [1], 0.2 to 1 µM in experiment [2] and < 0.2 µM in experiment [3].

Consider `Cn1nc(Cc2c(F)cccc2Cl)n(CC2CCC(C(F)(F)F)CC2)c1=O` (stereo not shown) [Example 7, 5-(2-chloro-6-fluorobenzyl)-2-methyl-4-((4-(trifluoromethyl)cyclohexyl)methyl)-2,4-dihydro-3H-1,2,4-triazol-3-one], for which the IC50 in experiment [1] is < 0.2 µM; in experiment [2], 0.2 to 1 µM; in experiment [3], < 0.2 µM.

In the case of `Cn1nc(Cc2ccc(F)cc2Cl)n(Cc2ccc(F)cc2)c1=O` [Example 8, 5-(2-chloro-4-fluorobenzyl)-4-(4-fluorobenzyl)-2-methyl-2,4-dihydro-3H-1,2,4-triazol-3-one], the IC50 in experiment [1], in experiment [2] and in experiment [3] was 1 to 10 µM throughout.

Consider `Cn1nc(Cc2ccc(F)cc2Cl)n(CC2CCCCC2)c1=O` [Example 9, 5-(2-chloro-4-fluorobenzyl)-4-(cyclohexylmethyl)-2-methyl-2,4-dihydro-3H-1,2,4-triazol-3-one], for which the IC50 is 0.2 to 1 µM in experiment [1], 0.2 to 1 µM in experiment [2] and < 0.2 µM in experiment [3].

Regarding `Cn1nc(Cc2ccc(F)cc2Cl)n(CC2CCC(F)(F)C2)c1=O` (stereo not shown) [Example 10, 5-(2-chloro-4-fluorobenzyl)-4-((3,3-difluorocyclopentyl)methyl)-2-methyl-2,4-dihydro-3H-1,2,4-triazol-3-one], the IC50 is 10 to 30 µM in experiment [1], 1 to 10 µM in experiment [2] and 0.2 to 1 µM in experiment [3].

As to `O=c1n(CC(F)(F)F)nc(Cc2ccccc2Cl)n1CC1CCCCCC1` [Example 54, 5-[(2-chlorophenyl)methyl]-4-(cycloheptylmethyl)-2-(2,2,2-trifluoroethyl)-2,4-dihydro-3H-1,2,4-triazol-3-one], the IC50 in experiment [1] is 0.2 to 1 µM; in experiment [2], 0.2 to 1 µM; in experiment [3], < 0.2 µM.

For the compound `Cn1nc(CC2CCCCCC2)n(Cc2c(F)cccc2Cl)c1=O` [Example 59, 4-[(2-chloro-6-fluorophenyl)methyl]-5-(cycloheptylmethyl)-2-methyl-2,4-dihydro-3H-1,2,4-triazol-3-one], the IC50 was 0.2 to 1 µM in experiment [1], 0.2 to 1 µM in experiment [2] and < 0.2 µM in experiment [3].

As for `CCn1nc(Cc2ccccc2Cl)n(CC2CCCCCC2)c1=O` [Example 64, 5-[(2-chlorophenyl)methyl]-4-(cycloheptylmethyl)-2-ethyl-2,4-dihydro-3H-1,2,4-triazol-3-one], the values for the IC50 in experiment [1], in experiment [2] and in experiment [3] were < 0.2 µM, 0.2 to 1 µM and < 0.2 µM, respectively.

Take `Cn1nc(CC2CCC(F)(F)CC2)n(Cc2c(F)cccc2Cl)c1=O` [Example 71, 4-[(2-chloro-6-fluorophenyl)methyl]-5-[(4,4-difluorocyclohexyl)methyl]-2-methyl-2,4-dihydro-3H-1,2,4-triazol-3-one]: the IC50 in experiment [1] was 0.2 to 1 µM; in experiment [2], 1 to 10 µM; in experiment [3] it was 0.2 to 1 µM.
